Values of other authors, collected in patent US20030087789A1, “Emulsion containing a plant extract, method for producing said emulsion and for obtaining a plant extract” (priority 2000, published 2003).

Tests used:
Escherichia coli = details: intestinal Escherichia coli

## C=C(C)[C@@H]1CC[C@]2(CO)CC[C@]3(C)[C@H](CC[C@@H]4[C@@]5(C)CC[C@H](O)C(C)(C)[C@@H]5CC[C@]43C)[C@@H]12 [betulin]
Staphylococcus aureus
  bacteriostatic and bactericidal effect: bacteriostatic and bactericidal effect
Escherichia coli
  bacteriostatic and bactericidal effect: bacteriostatic and bactericidal effect
Shigella flexneri
  bacteriostatic and bactericidal effect: bacteriostatic and bactericidal effect
Salmonella typhi
  bacteriostatic and bactericidal effect: bacteriostatic and bactericidal effect
Cold petroleum ether (C5-C8 CH)
  solubility in cold petroleum ether: practically insoluble
dichloromethane, chloroform and cold organic solvents
  solubility in dichloromethane, chloroform and cold organic solvents: only slightly soluble
Pyridine and tetrahydrofuran
  solubility in pyridine and tetrahydrofuran: soluble
water
  solubility in water: practically insoluble
Water or water-alcohol mixtures (up to 60% alcohol)
  solubility in water or water-alcohol mixtures: insoluble
